ChEMBL document CHEMBL5291721, “A preclinical secondary pharmacology resource illuminates target-adverse drug reaction associations of marketed drugs” (Nat Commun, 2023)

Legend:
Adenosine receptor A2a = Adenosine receptor A2a (Homo sapiens, UniProt P29274)
Cannabinoid receptor 1 = Cannabinoid receptor 1 (Homo sapiens, UniProt P21554); type: functional, cell-based
[1] = target: Neuronal acetylcholine receptor subunit alpha-4 (Homo sapiens, UniProt P43681)
[2] = target: Muscarinic acetylcholine receptor M3 (Homo sapiens, UniProt P20309)
Progesterone receptor = target: T1, Progesterone receptor (Homo sapiens, UniProt P06401); type: functional
T1 sequence (P06401 whole entry): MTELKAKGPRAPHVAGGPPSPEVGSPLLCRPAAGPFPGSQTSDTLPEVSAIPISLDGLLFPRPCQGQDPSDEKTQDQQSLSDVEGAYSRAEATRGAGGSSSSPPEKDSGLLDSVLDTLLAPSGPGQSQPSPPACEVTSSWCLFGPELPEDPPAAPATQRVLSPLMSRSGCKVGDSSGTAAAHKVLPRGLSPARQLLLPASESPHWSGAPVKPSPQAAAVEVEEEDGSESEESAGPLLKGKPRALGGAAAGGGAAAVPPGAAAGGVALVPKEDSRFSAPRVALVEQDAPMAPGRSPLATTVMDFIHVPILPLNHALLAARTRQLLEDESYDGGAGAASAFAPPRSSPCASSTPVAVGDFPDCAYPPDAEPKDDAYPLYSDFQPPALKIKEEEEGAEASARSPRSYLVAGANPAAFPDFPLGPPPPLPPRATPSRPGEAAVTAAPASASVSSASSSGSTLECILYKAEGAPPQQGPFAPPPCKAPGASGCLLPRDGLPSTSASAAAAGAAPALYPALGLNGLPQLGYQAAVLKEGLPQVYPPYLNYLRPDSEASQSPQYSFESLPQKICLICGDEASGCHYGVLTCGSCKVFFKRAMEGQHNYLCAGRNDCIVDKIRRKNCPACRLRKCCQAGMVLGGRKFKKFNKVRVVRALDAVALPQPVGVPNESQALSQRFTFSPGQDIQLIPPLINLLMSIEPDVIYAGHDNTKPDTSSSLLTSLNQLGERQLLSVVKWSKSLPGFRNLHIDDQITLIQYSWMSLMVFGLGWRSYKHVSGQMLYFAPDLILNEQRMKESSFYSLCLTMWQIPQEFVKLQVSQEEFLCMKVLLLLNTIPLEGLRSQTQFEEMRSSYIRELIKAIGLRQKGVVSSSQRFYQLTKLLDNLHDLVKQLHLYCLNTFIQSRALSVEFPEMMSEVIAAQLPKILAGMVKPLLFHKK

[3] = target: T2, Prostaglandin G/H synthase 1 (Rattus norvegicus, UniProt Q63921); type: functional
T2 sequence (Q63921 whole entry): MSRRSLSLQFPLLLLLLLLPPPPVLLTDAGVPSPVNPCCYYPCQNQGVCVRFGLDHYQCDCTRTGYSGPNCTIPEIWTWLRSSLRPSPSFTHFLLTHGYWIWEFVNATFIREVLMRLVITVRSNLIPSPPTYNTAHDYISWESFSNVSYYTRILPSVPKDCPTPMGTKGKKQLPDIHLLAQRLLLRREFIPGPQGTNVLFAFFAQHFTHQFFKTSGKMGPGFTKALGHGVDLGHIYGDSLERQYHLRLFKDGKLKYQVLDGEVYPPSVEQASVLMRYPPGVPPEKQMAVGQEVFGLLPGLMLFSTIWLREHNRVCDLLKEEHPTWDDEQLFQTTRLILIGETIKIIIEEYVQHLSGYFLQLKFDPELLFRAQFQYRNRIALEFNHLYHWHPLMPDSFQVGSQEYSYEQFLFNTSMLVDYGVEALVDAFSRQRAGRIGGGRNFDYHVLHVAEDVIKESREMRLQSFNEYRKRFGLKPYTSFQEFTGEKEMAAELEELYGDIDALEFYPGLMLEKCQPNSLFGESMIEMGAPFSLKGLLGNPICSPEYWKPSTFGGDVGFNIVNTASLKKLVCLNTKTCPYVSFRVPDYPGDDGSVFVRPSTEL

[4] = target: Beta-1 adrenergic receptor (Homo sapiens, UniProt P08588); type: functional
[5] = target: T3, Muscarinic acetylcholine receptor M2 (Homo sapiens, UniProt P08172); type: functional, cell-based
T3 sequence (P08172 whole entry): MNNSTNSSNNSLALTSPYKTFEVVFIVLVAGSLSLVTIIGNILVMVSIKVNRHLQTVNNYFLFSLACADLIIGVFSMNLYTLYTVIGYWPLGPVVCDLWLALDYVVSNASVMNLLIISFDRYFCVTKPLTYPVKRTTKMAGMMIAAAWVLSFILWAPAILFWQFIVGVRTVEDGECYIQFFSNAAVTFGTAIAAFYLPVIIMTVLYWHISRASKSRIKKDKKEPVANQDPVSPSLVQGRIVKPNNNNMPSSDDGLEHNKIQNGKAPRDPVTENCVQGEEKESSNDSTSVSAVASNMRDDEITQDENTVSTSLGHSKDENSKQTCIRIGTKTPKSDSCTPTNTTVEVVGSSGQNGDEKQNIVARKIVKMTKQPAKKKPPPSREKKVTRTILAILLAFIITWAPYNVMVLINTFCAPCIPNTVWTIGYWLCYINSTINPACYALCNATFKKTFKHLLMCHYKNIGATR

[6] = target: T4, 5-hydroxytryptamine receptor 1A (Homo sapiens, UniProt P08908); type: functional, cell-based
T4 sequence (P08908 whole entry): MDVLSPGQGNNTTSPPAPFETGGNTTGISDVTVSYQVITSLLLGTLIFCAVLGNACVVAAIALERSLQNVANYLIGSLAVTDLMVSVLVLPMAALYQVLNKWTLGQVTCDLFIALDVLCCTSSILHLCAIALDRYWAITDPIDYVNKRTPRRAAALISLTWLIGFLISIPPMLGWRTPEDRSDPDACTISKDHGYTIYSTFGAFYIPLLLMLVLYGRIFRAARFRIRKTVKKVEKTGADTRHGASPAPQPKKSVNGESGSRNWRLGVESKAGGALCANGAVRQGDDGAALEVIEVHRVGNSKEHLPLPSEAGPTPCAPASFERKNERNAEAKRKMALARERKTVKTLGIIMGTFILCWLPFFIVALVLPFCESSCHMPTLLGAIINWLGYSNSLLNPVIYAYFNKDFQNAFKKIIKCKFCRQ

[7] = target: Beta-2 adrenergic receptor (Homo sapiens, UniProt P07550)
Note: assay procedure not described here.

Beta-2 adrenergic receptor, sequence (P07550 whole entry): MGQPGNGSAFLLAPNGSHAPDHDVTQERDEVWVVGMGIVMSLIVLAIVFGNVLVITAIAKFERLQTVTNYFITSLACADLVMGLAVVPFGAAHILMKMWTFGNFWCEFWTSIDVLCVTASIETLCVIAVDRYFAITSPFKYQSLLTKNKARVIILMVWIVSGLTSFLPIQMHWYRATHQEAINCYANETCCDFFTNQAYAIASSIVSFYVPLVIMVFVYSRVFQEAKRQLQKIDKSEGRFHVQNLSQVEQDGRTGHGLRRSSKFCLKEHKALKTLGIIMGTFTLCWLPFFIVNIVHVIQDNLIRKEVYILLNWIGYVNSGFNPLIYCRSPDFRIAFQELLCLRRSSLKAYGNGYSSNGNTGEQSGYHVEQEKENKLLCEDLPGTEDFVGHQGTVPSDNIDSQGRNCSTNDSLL
Muscarinic acetylcholine receptor M3, sequence (P20309 whole entry): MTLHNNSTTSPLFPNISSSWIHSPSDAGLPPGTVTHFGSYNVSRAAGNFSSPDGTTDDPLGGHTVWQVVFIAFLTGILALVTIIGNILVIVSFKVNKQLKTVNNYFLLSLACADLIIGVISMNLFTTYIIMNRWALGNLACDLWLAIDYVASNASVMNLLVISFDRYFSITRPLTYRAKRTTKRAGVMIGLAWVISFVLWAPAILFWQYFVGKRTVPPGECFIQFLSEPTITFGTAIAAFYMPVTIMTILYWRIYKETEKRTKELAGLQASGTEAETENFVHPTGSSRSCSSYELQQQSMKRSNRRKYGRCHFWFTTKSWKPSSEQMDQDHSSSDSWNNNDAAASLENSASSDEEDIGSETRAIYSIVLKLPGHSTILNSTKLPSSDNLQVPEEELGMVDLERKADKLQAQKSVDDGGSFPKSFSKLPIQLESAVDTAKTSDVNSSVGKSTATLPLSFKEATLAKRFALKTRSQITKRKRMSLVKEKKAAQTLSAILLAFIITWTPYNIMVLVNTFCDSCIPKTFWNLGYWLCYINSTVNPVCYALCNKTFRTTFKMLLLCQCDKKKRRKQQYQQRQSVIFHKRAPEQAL
Neuronal acetylcholine receptor subunit alpha-4, sequence (P43681 whole entry): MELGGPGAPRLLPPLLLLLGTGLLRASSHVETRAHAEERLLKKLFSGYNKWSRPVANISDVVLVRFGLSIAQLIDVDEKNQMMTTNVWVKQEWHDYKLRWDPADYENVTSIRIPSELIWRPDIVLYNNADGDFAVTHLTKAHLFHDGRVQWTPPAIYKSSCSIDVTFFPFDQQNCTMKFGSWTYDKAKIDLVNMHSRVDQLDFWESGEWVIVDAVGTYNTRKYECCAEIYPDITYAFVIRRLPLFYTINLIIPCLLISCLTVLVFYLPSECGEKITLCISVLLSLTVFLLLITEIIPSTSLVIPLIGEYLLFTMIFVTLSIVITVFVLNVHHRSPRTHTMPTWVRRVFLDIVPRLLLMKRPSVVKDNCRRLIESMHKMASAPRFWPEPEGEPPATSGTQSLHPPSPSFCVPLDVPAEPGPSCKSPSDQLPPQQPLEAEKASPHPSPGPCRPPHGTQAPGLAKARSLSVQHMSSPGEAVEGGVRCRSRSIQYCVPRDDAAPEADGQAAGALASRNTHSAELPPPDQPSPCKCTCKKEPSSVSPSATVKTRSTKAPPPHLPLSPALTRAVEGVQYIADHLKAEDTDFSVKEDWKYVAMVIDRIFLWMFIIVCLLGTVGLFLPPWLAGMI
Beta-1 adrenergic receptor, sequence (P08588 whole entry): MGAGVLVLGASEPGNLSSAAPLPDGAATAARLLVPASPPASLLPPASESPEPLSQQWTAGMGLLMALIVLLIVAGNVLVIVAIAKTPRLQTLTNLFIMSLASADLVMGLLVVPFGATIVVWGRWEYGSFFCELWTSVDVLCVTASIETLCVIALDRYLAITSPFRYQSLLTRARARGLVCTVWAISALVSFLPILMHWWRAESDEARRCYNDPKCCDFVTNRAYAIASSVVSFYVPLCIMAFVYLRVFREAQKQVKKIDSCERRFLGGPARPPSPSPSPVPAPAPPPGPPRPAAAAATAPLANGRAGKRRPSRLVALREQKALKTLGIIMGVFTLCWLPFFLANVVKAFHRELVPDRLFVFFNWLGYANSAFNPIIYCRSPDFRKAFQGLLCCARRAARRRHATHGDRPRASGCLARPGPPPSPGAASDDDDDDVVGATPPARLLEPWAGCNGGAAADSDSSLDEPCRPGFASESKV
Cannabinoid receptor 1, sequence (P21554 whole entry): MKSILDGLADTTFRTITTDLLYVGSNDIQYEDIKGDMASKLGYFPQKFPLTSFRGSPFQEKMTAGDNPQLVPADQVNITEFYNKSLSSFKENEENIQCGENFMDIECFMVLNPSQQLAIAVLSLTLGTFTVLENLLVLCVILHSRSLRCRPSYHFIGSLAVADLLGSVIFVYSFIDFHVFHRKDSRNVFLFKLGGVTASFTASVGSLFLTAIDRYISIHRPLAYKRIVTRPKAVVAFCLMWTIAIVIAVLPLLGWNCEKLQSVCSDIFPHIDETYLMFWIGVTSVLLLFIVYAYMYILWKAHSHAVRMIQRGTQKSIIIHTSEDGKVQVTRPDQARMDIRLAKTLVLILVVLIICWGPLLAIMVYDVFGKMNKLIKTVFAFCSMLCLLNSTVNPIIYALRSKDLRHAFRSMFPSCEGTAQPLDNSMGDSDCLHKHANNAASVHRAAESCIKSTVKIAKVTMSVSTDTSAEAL
Adenosine receptor A2a, sequence (P29274 whole entry): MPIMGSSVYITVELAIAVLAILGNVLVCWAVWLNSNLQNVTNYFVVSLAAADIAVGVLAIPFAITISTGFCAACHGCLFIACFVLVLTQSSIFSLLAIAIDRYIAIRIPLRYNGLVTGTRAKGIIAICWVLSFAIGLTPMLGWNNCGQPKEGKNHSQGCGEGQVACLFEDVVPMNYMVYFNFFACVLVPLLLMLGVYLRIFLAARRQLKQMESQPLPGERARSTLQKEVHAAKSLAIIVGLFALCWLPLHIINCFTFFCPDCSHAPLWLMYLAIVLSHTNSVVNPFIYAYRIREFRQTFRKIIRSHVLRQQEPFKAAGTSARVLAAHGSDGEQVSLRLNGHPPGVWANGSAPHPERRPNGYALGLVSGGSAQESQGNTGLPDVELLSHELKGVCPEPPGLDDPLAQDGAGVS

Molecule	AC50 (Adenosine receptor A2a)	AC50 (Cannabinoid receptor 1)	AC50 [1]	AC50 [2]	AC50 (Progesterone receptor)	AC50 [3]	AC50 [4]	AC50 [5]	AC50 [6]	AC50 [7]
CN1CCN(c2c(F)cc3c(=O)c(C(=O)O)cn4c3c2SCC4)CC1 [RUFLOXACIN]	> 30 µM	> 30 µM	> 30 µM	> 30 µM	> 30 µM	> 30 µM	> 30 µM	> 30 µM		
COLISTIN		> 30 µM		> 30 µM					> 30 µM	
CCN(CC)CCOC(=O)c1ccc(N)cc1Cl [CHLOROPROCAINE]	> 30 µM	> 30 µM	25 µM	18 µM	> 30 µM	> 30 µM	> 30 µM	> 30 µM	> 30 µM	
CCCC[C@H](C)C[C@H](O)/C=C/[C@H]1[C@H](O)CC(=O)[C@@H]1CCCC/C=C/C(=O)O [LIMAPROST]	> 30 µM	> 30 µM	> 30 µM	> 30 µM	> 30 µM	> 30 µM	> 30 µM	> 30 µM	> 30 µM	
CCOC(=O)Nc1ccc2c(c1)N(C(=O)CCN1CCOCC1)c1ccccc1S2 [MORICIZINE]	> 30 µM	> 30 µM	> 30 µM	> 30 µM	> 30 µM	> 30 µM	> 30 µM	> 30 µM		
N#C[C@@H]1CCCN1C(=O)CNC12CC3CC(CC(O)(C3)C1)C2 [VILDAGLIPTIN]	> 30 µM		> 10 µM	> 30 µM		> 30 µM	> 10 µM	> 30 µM		> 10 µM
COc1c(O[C@@H]2O[C@H](CO)[C@@H](O)[C@H](O)[C@H]2O)cc2c(c1OC)-c1ccc(SC)c(=O)cc1[C@@H](NC(C)=O)CC2 [THIOCOLCHICOSIDE]	> 30 µM	> 30 µM	> 30 µM	> 30 µM	> 30 µM	> 30 µM	> 30 µM	> 30 µM	> 30 µM	
CCCCC1(CC)C(=O)NC(=O)NC1=O [BUTETHAL]	> 30 µM	> 30 µM	> 30 µM	> 30 µM	> 30 µM	> 30 µM	> 30 µM	> 30 µM	> 30 µM	
Nc1ccn([C@@H]2O[C@H](CO)[C@@H](O)C2(F)F)c(=O)n1 [GEMCITABINE]	> 30 µM	> 30 µM	> 10 µM		> 30 µM	> 30 µM	> 30 µM	> 10 µM	> 10 µM	> 30 µM
COc1cc2c(Nc3ccc(Br)cc3F)ncnc2cc1OCC1CCN(C)CC1 [VANDETANIB]	> 30 µM	> 30 µM	9.6 µM	24 µM	> 10 µM	> 30 µM	> 30 µM	> 30 µM		
Cc1ccc(NC(=O)C2(c3ccc4c(c3)OC(F)(F)O4)CC2)nc1-c1cccc(C(=O)O)c1 [LUMACAFTOR]	> 30 µM	> 30 µM	> 30 µM	> 30 µM	> 30 µM	> 30 µM	> 30 µM	> 30 µM	> 30 µM	
O=C(O)c1ccccc1OP(=O)(O)O [FOSFOSAL]	> 30 µM	> 30 µM	> 30 µM	> 30 µM	> 30 µM	> 30 µM	> 30 µM	> 30 µM	> 30 µM	
CC#CCn1c(N2CCC[C@@H](N)C2)nc2c1c(=O)n(Cc1nc(C)c3ccccc3n1)c(=O)n2C [LINAGLIPTIN]	> 30 µM		> 10 µM	6.5 µM		> 30 µM	> 10 µM			> 10 µM
COCCOC(=O)C1=C(C)NC(C)=C(C(=O)OC/C=C/c2ccccc2)C1c1cccc([N+](=O)[O-])c1 (configuration not stated) [CILNIDIPINE]	> 30 µM	> 30 µM	> 30 µM	> 30 µM	> 30 µM	> 30 µM	> 30 µM	> 30 µM	> 30 µM	
CO[C@@]1(NC(=O)Cc2cccs2)C(=O)N2C(C(=O)O)=C(COC(N)=O)CS[C@@H]21 [CEFOXITIN]	> 30 µM	> 30 µM	> 30 µM	> 30 µM	> 30 µM	> 30 µM	> 30 µM	> 30 µM	> 30 µM	
COc1cc(OC)c(C(=O)CCCN2CCCC2)c(OC)c1 [BUFLOMEDIL]	> 30 µM	> 30 µM	> 30 µM		> 30 µM	> 30 µM	> 30 µM	> 30 µM	29 µM	> 30 µM
CC1(C)C(/C=C/C=C/C=C/C=C2\N(CCCCS(=O)(=O)O)c3ccc4ccccc4c3C2(C)C)=[N+](CCCCS(=O)(=O)[O-])c2ccc3ccccc3c21 [INDOCYANINE GREEN ACID FORM]	> 30 µM	9.3 µM	> 30 µM	13 µM	3.4 µM	21 µM	9.4 µM		> 30 µM	
Cc1cc2nc3c(=O)[nH]c(=O)nc-3n(C[C@H](O)[C@H](O)[C@H](O)COP(=O)(O)O)c2cc1C [RIBOFLAVIN 5'-PHOSPHATE]	> 30 µM		> 30 µM	> 30 µM		0.9 µM	> 30 µM			> 30 µM
C=C[C@@]1(C)CC(=O)[C@]2(O)[C@@]3(C)[C@@H](O)CCC(C)(C)[C@@H]3[C@H](OC(=O)CCN(C)C)[C@H](OC(C)=O)[C@@]2(C)O1	> 30 µM	> 30 µM	> 30 µM	> 30 µM	> 30 µM	> 30 µM	> 30 µM	> 30 µM		
